This note sets out measurements from patent US20090253669A1, “Substituted Sulfonamide Compounds” (GRUENENTHAL GmbH, priority 2008, published 2009).

Test [1] deals with T1, human B1R receptor (hB1R) (Homo sapiens, UniProt P46663).
T1 construct: host or cells: CHO K1 cells
T1 sequence (P46663 1-353): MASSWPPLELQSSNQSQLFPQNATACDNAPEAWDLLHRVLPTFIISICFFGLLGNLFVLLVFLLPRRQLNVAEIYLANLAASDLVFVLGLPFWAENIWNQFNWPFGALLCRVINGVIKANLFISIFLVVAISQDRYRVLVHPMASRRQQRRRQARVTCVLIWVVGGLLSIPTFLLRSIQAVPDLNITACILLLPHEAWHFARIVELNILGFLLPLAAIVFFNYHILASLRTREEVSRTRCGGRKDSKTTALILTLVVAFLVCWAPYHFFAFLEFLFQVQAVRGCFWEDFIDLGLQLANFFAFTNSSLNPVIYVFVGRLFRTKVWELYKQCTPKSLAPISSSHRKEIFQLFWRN
The experiment in a line: FLIPR Ca2+ assay on hB1R-transfected CHO K1 cells, antagonistic action. It is filed as cell-based. The conditions noted are these: CHO-K1, 10 μM test substance; agonist Lys-Des-Arg9-bradykinin 0.5 nM; % of maximum achievable inhibition; read-out: hB1R [10 μM] % inhibition.

Test [2] deals with T2, B1R receptor of the rat (rB1R) (Rattus norvegicus, UniProt P97583).
T2 construct: host or cells: CHO K1 cells
T2 sequence (P97583 1-337): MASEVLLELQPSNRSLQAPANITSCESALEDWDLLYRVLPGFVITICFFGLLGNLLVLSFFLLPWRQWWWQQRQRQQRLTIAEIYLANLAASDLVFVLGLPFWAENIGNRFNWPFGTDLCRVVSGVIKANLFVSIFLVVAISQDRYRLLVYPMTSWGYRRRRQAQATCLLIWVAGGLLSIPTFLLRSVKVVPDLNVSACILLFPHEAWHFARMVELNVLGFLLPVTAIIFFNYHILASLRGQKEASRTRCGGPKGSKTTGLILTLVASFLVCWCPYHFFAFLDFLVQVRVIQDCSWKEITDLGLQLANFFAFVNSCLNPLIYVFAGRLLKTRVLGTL
The experiment in a line: FLIPR Ca2+ assay on rB1R-transfected CHO K1 cells, antagonistic action. The conditions noted are these: CHO-K1, 10 μM test substance; agonist Des-Arg9-bradykinin 100 nM; % of maximum achievable inhibition; read-out: rB1R [10 μM] % inhibition. It is filed as cell-based.

For orientation: inhibition means the relative decrease from the control value, in per cent.

With `COc1cc(C)c(S(=O)(=O)N2CCCCC2COCC(=O)N(C)CCCC2CCC(Cc3ccccc3)(N3CCCC3)CC2)c(C)c1` (stereo not shown) [Compound 88, N-(3-(4-benzyl-4-(pyrrolidin-1-yl)cyclohexyl)propyl)-2-((1-(4-methoxy-2,6-dimethylphenylsulfonyl)piperidin-2-yl)methoxy)-N-methylacetamide], the results for the inhibition at 10 µM in test [1] and in test [2] were 101% and 98%, respectively.

For `Cc1cc(S(=O)(=O)N2CCCCC2CCC(=O)N(C)CC2CCC(Cc3ccccc3)(N3CCCC3)CC2)c(C)cc1Cl` (stereo not shown) [Compound 129, N-((4-benzyl-4-(pyrrolidin-1-yl)cyclohexyl)methyl)-3-(1-(4-chloro-2,5-dimethylphenylsulfonyl)piperidin-2-yl)-N-methylpropanamide], the inhibition at 10 µM in test [1] was found to be 104%; in test [2], 52%.

In the case of `COc1cc(C)c(S(=O)(=O)N2CCCC2COCC(=O)NC2CCC(Cc3ccccc3)(N3CCCC3)CC2)c(C)c1` (stereo not shown) [Compound 151, N-(4-benzyl-4-(pyrrolidin-1-yl)cyclohexyl)-2-((1-(4-methoxy-2,6-dimethylphenylsulfonyl)pyrrolidin-2-yl)methoxy)acetamide], the inhibition at 10 µM in test [1] was determined as 90%; in test [2], 103%.

As to `Cc1cc(S(=O)(=O)N2CCCCC2CCC(=O)N(C)CCC2CCC(Cc3ccccc3)(N3CCCC3)CC2)c(C)cc1Cl` (stereo not shown) [Compound 117, N-(2-(4-benzyl-4-(pyrrolidin-1-yl)cyclohexyl)ethyl)-3-(1-(4-chloro-2,5-dimethylphenylsulfonyl)piperidin-2-yl)-N-methylpropanamide], the inhibition at 10 µM in test [1] is 103%; in test [2] it was 70%.

Turning to `COc1cc(C)c(S(=O)(=O)N(C)CCOCC(=O)N(C)CC2CCC(CCc3ccccc3)(N3CCN(C)CC3)CC2)c(C)c1` (stereo not shown) [Compound 165, 2-(2-(4-methoxy-N,2,6-trimethylphenylsulfonamido)ethoxy)-N-methyl-N-((4-(4-methylpiperazin-1-yl)-4-phenethylcyclohexyl)methyl)acetamide], the inhibition at 10 µM in test [1] was found to be 103%; in test [2] it was 90%.

On to `CN1CCN(C2(Cc3ccccc3)CCN(C(=O)COCC3CCc4ccccc4N3S(=O)(=O)c3ccc(Cl)c(Cl)c3)CC2)CC1` (stereo not shown) [Compound 108, 1-(4-benzyl-4-(4-methylpiperazin-1-yl)piperidin-1-yl)-2-((1-(3,4-dichlorophenylsulfonyl)-1,2,3,4-tetrahydroquinolin-2-yl)methoxy)ethanone], for which the inhibition at 10 µM in test [1] turned out to be 60%; in test [2] it was 79%.

With `COc1cc(C)c(S(=O)(=O)N(C)CCOCC(=O)N2CCC(c3ccccc3)(N3CCN(c4ccncc4)CC3)CC2)c(C)c1` [Compound 69, 4-methoxy-N,2,6-trimethyl-N-(2-(2-oxo-2-(4-phenyl-4-(4-(pyridin-4-yl)piperazin-1-yl)piperidin-1-yl)ethoxy)ethyl)benzenesulfonamide], the inhibition at 10 µM in test [1] worked out at 102%; in test [2] it was 99%.

For `COc1cc(C)c(S(=O)(=O)N2CCCCC2COCC(=O)N2CCC(c3cccc(F)c3)(N3CCN(C)CC3)CC2)c(C)c1` (stereo not shown) [Compound 211, 1-(4-(3-Fluorophenyl)-4-(4-methylpiperazin-1-yl)piperidin-1-yl)-2-((1-(4-methoxy-2,6-dimethylphenylsulfonyl)piperidin-2-yl)methoxy)ethanone], the inhibition at 10 µM in test [1] came to 100%; in test [2], 101%.

`Cc1cc(S(=O)(=O)N2CCCCC2CCC(=O)N2CCC(c3ccccc3)(N3CCN(c4ccncc4)CC3)CC2)c(C)cc1Cl` (stereo not shown) [Compound 99, 3-(1-(4-chloro-2,5-dimethylphenylsulfonyl)piperidin-2-yl)-1-(4-phenyl-4-(4-(pyridin-4-yl)piperazin-1-yl)piperidin-1-yl)propan-1-one]: the inhibition at 10 µM stood at 100% in test [1] and 90% in test [2].

In the case of `Cc1cc(S(=O)(=O)N2CCCCC2CCC(=O)N2CCC(CCc3ccccc3)(N(C)C)CC2)c(C)cc1Cl` (stereo not shown) [Compound 137, 3-(1-(4-chloro-2,5-dimethylphenylsulfonyl)piperidin-2-yl)-1-(4-(dimethylamino)-4-phenethylpiperidin-1-yl)propan-1-one], the inhibition at 10 µM in test [1] was found to be 104%; in test [2] it was 30%.

Consider `CN1CCN(C2(c3ccc(F)cc3)CCN(C(=O)COCC3CCc4ccccc4N3S(=O)(=O)c3ccc(Cl)c(Cl)c3)CC2)CC1` (stereo not shown) [Compound 126, 2-((1-(3,4-dichlorophenylsulfonyl)-1,2,3,4-tetrahydroquinolin-2-yl)methoxy)-1-(4-(4-fluorophenyl)-4-(4-methylpiperazin-1-yl)piperidin-1-yl)ethanone], for which the inhibition at 10 µM in test [1] was 87%; in test [2], 55%.

Take `O=C(COCC1CCCCN1S(=O)(=O)c1c(Cl)cc(Cl)cc1Cl)NC1CCC(c2ccccc2)(N2CCCC2)CC1` (stereo not shown) [Compound 142, N-(4-phenyl-4-(pyrrolidin-1-yl)cyclohexyl)-2-((1-(2,4,6-trichlorophenylsulfonyl)piperidin-2-yl)methoxy)acetamide]: the inhibition at 10 µM in test [1] was 92%; in test [2], 113%.

As for `Cc1cc(S(=O)(=O)N2CCCCC2CCC(=O)N(C)CCCC2CCC(c3ccccc3)(N3CCCC3)CC2)c(C)cc1Cl` (stereo not shown) [Compound 136, 3-(1-(4-chloro-2,5-dimethylphenylsulfonyl)piperidin-2-yl)-N-methyl-N-(3-(4-phenyl-4-(pyrrolidin-1-yl)cyclohexyl)propyl)propanamide], the inhibition at 10 µM was 99% in test [1] and 32% in test [2].

As for `COc1cc(C)c(S(=O)(=O)N2CCCC2COCC(=O)N(C)CC2CCC(Cc3ccccc3)(N3CCN(C)CC3)CC2)c(C)c1` (stereo not shown) [Compound 154, N-((4-benzyl-4-(4-methylpiperazin-1-yl)cyclohexyl)methyl)-2-((1-(4-methoxy-2,6-dimethylphenylsulfonyl)pyrrolidin-2-yl)methoxy)-N-methylacetamide], the inhibition at 10 µM in test [1] amounted to 95%; in test [2], 101%.

For the molecule `COc1cc(C)c(S(=O)(=O)N2CCC(OCC(=O)NC3CCC(Cc4ccccc4)(N4CCCC4)CC3)C2)c(C)c1` (stereo not shown) [Compound 166, N-(4-benzyl-4-(pyrrolidin-1-yl)cyclohexyl)-2-(1-(4-methoxy-2,6-dimethylphenylsulfonyl)pyrrolidin-3-yloxy)acetamide], the inhibition at 10 µM in test [1] was found to be 92%; in test [2], 90%.

In the case of `COc1cc(C)c(S(=O)(=O)N2CCCCC2COCC(=O)N(C)CCC2CCC(c3ccccc3)(N3CCCC3)CC2)c(C)c1` (stereo not shown) [Compound 60, 2-((1-(4-methoxy-2,6-dimethylphenylsulfonyl)piperidin-2-yl)methoxy)-N-methyl-N-(2-(4-phenyl-4-(pyrrolidin-1-yl)cyclohexyl)ethyl)acetamide], the inhibition at 10 µM in test [1] was 103%; in test [2], 100%.

As for `COc1cc(C)c(S(=O)(=O)N2CCCCC2COCC(=O)N2CCC(CCc3ccccc3)(N(C)C)CC2)c(C)c1` (stereo not shown) [Compound 50, 1-(4-(dimethylamino)-4-phenethylpiperidin-1-yl)-2-((1-(4-methoxy-2,6-dimethylphenylsulfonyl)piperidin-2-yl)methoxy)ethanone], the inhibition at 10 µM in test [1] was determined as 102%; in test [2] it was 100%.
